Laboratory results as given in PubChem BioAssay AID1963437 (Molecular Pharmacology Branch, DTP, NCI, 2024).
“And” between values parts separate entries of the source, which are not always exact repeats. Equal entries are not always repeated.

System: OVCAR-8 complex spheroid, growth inhibition
Assay: Anticancer human tumor OVCAR-8 cell line growth inhibition [Asc];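 further: spheroids exposed to agents for 7 days before readout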;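 on viability, T/C: percent viability relative to DMSO vehicle wells taken as 100%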
Conditions: for viability, T/C: stronger effect = lower value
Procedure: Multicellular complex tumor spheroid response to apoptosis pathway targeting inhibitors Alrizomadlin, Pelcitoclax, and Dasminapant in combination with a variety of drugs and investigational agents in selected tumor cell lines
The MDM2 inhibitor alrizomadlin, the Bcl-2/Bcl-xL inhibitor pelcitoclax, and the IAPs inhibitor dasminapant were evaluated both individually and in combination with standard of care and investigational anticancer small molecules within a complex spheroid model of solid tumors. . Complex spheroids include a stromal component modeled by human endothelial cells (HUVEC) and fibroblasts modeled by human mesenchymal stem cells (MSCs). The concentration ranges selected for each drug and investigational agent were based upon clinically achievable concentrations if the clinical Cmax of the agent was known.
Compounds. The drugs and investigational agents: alrizomadlin (APG-115; NSC831270), pelcitoclax (APG-1252; NSC835773), dasminapant (APG-1387;NSC834197), TAK-243 (NSC785004), copanlisib (NSC809693), olaparib (NSC753686), talazoparib (NSC767125), cobimetinib (NSC 768068), eltanexor (KPT-8602, NSC 794443), abemaciclib (NSC 768073), sotorasib (NSC818433), adagrasib (NSC 831453), MRTX-1133 (NSC 836407), Iadademestat (ORY1001, NSC 806812), and RMC-4630 (NSC839698), were obtained from the NCI Developmental Therapeutics Program Chemical Repository. The FDA-approved anticancer drug set is available from the Developmental Therapeutics Program at https://dtp.cancer.gov/organization/dscb/obtaining/available plates.htm. […] The stock solutions were prepared in dimethyl sulfoxide (DMSO, Sigma-Aldrich, St. Louis, MO, cat. D2650) at 800-fold the tested concentration and stored at -70 degrees C prior to their use. All drugs and investigational agents were tested over a range starting from a high concentration at or near the clinical Cmax and decreasing in half-log increments. If the clinical Cmax for an agent had not been determined, the highest concentration tested was 10 microM.
The patient-derived cancer (PDC) cell lines include five colon adenocarcinomas: 186277-243-T-J2-PDC, 616215-338-R-J1-PDC, 439559-082-T-J2-PDC, 463943-066-T-J2-PDC, and 519858-162-T-J1-PDC; three pancreatic carcinomas: 323965-272-R-J2-PDC, 521955-158-R6-J3-PDC, and 521955-158-R2-J5-PDC; two uterine sarcomas: 327498-152-R-J2-PDC and 993429-296-R-J1-PDC; two rhabdomyosarcomas: 755483-174-R-J1-PDC and 772245-204-R-J1-PDC; two soft tissue sarcomas: 126254-015-R-J1-PDC and 494315-158-R-J1-PDC; two malignant fibrous histiocytomas: 317291-083-R-J1-PDC and 596521-263-R-J1-PDC; two breast carcinomas: 171881-019-R-J1-PDC and 885512-296-R-J2-PDC; and one ovarian carcinoma: 6556581-035-R-J-PDC were obtained from the NCI PDMR, (https://pdmr.cancer.gov). The established cell lines HSSY-2 synovial sarcoma (RRID:CVCL 8719), SYO-1 synovial sarcoma (RRID:CVCL_7146), MPNST malignant peripheral neural sheath tumor were obtained from the Sloan Kettering Institute. The following established cell lines were purchased from the American Type Culture Collection (ATCC, Manassas, VA), Sor the received from the NCI repository:, PANC-1 pancreatic carcinoma (CRL-1469, RRID:CVCL_0480), OVCAR-5 ovarian carcinoma (RRID:CVCL_1628), OVCAR-8 ovarian carcinoma (RRID:CVCL_1629), , MCF-7 breast carcinoma (CRL-12584, RRID:CVCL_0031), MDA-MB-231 breast carcinoma (CRL-12532, RRID:CVCL_0062), NCI-H1876 small cell lung carcinoma (CRL-5902, RRID:CVCL_1503), NCI-H510A small cell lung carcinoma (HTB-184, RRID:CVCL_1565), NCI-H1417 (CRL-5869, RRID:CVCL_1469), and NCI-H196 small cell lung carcinoma (CRL-5823, RRID:CVCL_1509). Dr. Peter Houghton (Greehey Children's Cancer Research Institute, University of Texas Health Science Center, San Antonio, TX) provided Rh-18 rhabdomyosarcoma (RRID:CVCL_1659). Pooled donor human umbilical vein endothelial cells (HUVEC, Lonza, cat. CC-2519) and human mesenchymal stem cells (hMSC, Lonza, cat. PT-2501) were purchased from Lonza (Walkersville, MD).
Cell Culture. […]

`NC(=O)C(=Cn1cnc(-c2cc(C(F)(F)F)cc(C(F)(F)F)c2)n1)c1cncnc1` + CNC(C)C(=O)NC1CN(S(=O)(=O)c2cccc(S(=O)(=O)N3CCC4CCC(C(=O)NC(c5ccccc5)c5ccccc5)N4C(=O)C(NC(=O)C(C)NC)C3)c2)CCC2CCC(C(=O)NC(c3ccccc3)c3ccccc3)N2C1=O gave an IC50 (curve of first compound, second compound 0.00316 µM) of 261 nM, an IC50 (curve of first compound, second compound 0.01 µM) of over 300 nM and an IC50 (curve of first compound, second compound 0.0316 µM) of over 300 nM. The IC50 (curve of first compound, second compound 0.1 µM) was 120 nM, the IC50 (curve of first compound, second compound 0.316 µM) was 73.2 nM and the IC50 (curve of first compound, second compound 1 µM) was 67.9 nM. For the same compound, the viability, T/C (second compound 0.00316 µM, first compound 0.000949 µM) was 140%, the viability, T/C (second compound 0.00316 µM, first compound 0.003 µM) was 111% and the viability, T/C (second compound 0.00316 µM, first compound 0.00949 µM) was 110%. It also gave a viability, T/C (second compound 0.00316 µM, first compound 0.03 µM) of 153%, a viability, T/C (second compound 0.00316 µM, first compound 0.0949 µM) of 95.6% and a viability, T/C (second compound 0.00316 µM, first compound 0.3 µM) of 43.8%. The viability, T/C (second compound 0.01 µM, first compound 0.000949 µM) was 123%, the viability, T/C (second compound 0.01 µM, first compound 0.003 µM) was 129% and the viability, T/C (second compound 0.01 µM, first compound 0.00949 µM) was 110%. For the same compound, the viability, T/C (second compound 0.01 µM, first compound 0.03 µM) was 123%, the viability, T/C (second compound 0.01 µM, first compound 0.0949 µM) was 91.2% and the viability, T/C (second compound 0.01 µM, first compound 0.3 µM) was 54%. It also gave a viability, T/C (second compound 0.0316 µM, first compound 0.000949 µM) of 117%, a viability, T/C (second compound 0.0316 µM, first compound 0.003 µM) of 114% and a viability, T/C (second compound 0.0316 µM, first compound 0.00949 µM) of 112%. It also gave a viability, T/C (second compound 0.0316 µM, first compound 0.03 µM) of 129%, a viability, T/C (second compound 0.0316 µM, first compound 0.0949 µM) of 74.5% and a viability, T/C (second compound 0.0316 µM, first compound 0.3 µM) of 48.4%. The viability, T/C (second compound 0.1 µM, first compound 0.000949 µM) was 122%, the viability, T/C (second compound 0.1 µM, first compound 0.003 µM) was 91.6% and the viability, T/C (second compound 0.1 µM, first compound 0.00949 µM) was 121%. It also gave a viability, T/C (second compound 0.1 µM, first compound 0.03 µM) of 138%, a viability, T/C (second compound 0.1 µM, first compound 0.0949 µM) of 55.3% and a viability, T/C (second compound 0.1 µM, first compound 0.3 µM) of 29.5%. The viability, T/C (second compound 0.316 µM, first compound 0.000949 µM) was 109%, the viability, T/C (second compound 0.316 µM, first compound 0.003 µM) was 115% and the viability, T/C (second compound 0.316 µM, first compound 0.00949 µM) was 113%. For the same compound, the viability, T/C (second compound 0.316 µM, first compound 0.03 µM) was 122%, the viability, T/C (second compound 0.316 µM, first compound 0.0949 µM) was 31.3% and the viability, T/C (second compound 0.316 µM, first compound 0.3 µM) was 7.46%. The viability, T/C (second compound 1 µM, first compound 0.000949 µM) was 97%, the viability, T/C (second compound 1 µM, first compound 0.003 µM) was 103% and the viability, T/C (second compound 1 µM, first compound 0.00949 µM) was 109%. For the same compound, the viability, T/C (second compound 1 µM, first compound 0.03 µM) was 127%, the viability, T/C (second compound 1 µM, first compound 0.0949 µM) was 25.8% and the viability, T/C (second compound 1 µM, first compound 0.3 µM) was 4.16%.
With `COc1c(OCCCN2CCOCC2)ccc2c3n(c(=NC(=O)c4cnc(N)nc4)nc12)CCN3` the viability, T/C (compound 0.00316 µM) was 98.2% and 94.8% and 108%, the viability, T/C (compound 0.01 µM) was 111% and 110% and 109% and the viability, T/C (compound 0.0316 µM) was 120% and 123% and 130%. The viability, T/C (compound 0.1 µM) was 167% and 133% and 157%, the viability, T/C (compound 0.316 µM) was 134% and 141% and 143% and the viability, T/C (compound 1 µM) was 77% and 89.5% and 94.5%. The IC50 (curve of compound) was over 1000 nM.
